The target of the assay is T1, mutant CFTR (Homo sapiens, UniProt P13569, DEL508-508).
T1 construct: expressed in transfected cells
Briefly: Fluorescence (HS-YFP) assay for CFTR activity, corrector assay. Format: cell-based. As to conditions: CFBE41o- and FRT cells with stable expression of mutant CFTR, 24 h compound treatment. A digest of the protocol:
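CFBE41o- or FRT cells stably expressing mutant CFTR and HS-YFP were exposed to compounds for 24 h (corrector mode), then stimulated 30 min at 37° C with forskolin (20 μM) plus genistein (50 μM). YFP quenching after 100 mM iodide injection; initial slope from exponential fit of final 10 s; EC50 reported.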

T1 sequence (P13569 with tags, fused parts or gaps DEL508-508): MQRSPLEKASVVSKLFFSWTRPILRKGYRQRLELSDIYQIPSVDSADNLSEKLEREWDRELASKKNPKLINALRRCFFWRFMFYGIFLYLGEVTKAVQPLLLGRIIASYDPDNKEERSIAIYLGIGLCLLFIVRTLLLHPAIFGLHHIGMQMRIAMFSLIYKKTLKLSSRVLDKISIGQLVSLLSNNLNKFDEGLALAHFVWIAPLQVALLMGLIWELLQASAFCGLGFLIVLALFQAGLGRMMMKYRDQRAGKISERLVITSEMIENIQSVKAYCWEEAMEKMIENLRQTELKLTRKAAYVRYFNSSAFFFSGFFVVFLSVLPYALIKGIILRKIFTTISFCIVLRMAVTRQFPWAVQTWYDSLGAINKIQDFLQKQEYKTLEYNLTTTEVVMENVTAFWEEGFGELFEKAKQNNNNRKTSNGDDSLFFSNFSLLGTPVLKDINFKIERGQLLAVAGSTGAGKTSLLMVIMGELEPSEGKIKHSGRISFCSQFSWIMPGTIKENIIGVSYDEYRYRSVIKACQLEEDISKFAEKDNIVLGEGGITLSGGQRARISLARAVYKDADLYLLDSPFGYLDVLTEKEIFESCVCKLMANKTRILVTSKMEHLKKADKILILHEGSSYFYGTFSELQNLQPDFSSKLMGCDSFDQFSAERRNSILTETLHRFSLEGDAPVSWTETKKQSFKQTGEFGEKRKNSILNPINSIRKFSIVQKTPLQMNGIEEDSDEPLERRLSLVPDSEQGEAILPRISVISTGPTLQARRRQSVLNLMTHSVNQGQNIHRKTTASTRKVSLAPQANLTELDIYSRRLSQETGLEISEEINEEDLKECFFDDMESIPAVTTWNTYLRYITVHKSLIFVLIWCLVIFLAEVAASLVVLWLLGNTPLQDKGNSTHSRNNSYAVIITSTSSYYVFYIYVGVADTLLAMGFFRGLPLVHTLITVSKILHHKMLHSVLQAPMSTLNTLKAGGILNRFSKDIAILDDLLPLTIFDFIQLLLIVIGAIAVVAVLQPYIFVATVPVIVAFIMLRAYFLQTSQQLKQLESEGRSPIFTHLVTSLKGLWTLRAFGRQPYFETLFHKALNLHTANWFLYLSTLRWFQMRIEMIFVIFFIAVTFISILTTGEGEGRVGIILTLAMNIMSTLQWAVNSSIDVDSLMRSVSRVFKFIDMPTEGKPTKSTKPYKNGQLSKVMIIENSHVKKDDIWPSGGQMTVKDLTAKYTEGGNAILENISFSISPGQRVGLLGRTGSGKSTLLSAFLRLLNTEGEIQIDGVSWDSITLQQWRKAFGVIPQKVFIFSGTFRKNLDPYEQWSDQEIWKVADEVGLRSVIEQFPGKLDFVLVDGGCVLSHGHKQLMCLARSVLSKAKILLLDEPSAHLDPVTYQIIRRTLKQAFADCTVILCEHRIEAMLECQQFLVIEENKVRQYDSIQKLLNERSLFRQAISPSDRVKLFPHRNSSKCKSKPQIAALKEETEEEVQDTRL

For the compound `CNC(=O)c1c(Cl)c(C)nn1-c1cccc(C(=O)N(C)c2ccc3c(c2)OCO3)c1` [compound 085, 2-[3-[1,3-benzodioxol-5-yl(methyl)carbamoyl]phenyl]-4-chloro-N,5-dimethyl-pyrazole-3-carboxamide], the EC50 is greater than 2000 nM.

On to `CCOC(=O)c1nn(-c2cccc(C(=O)N(C)c3ccc4c(c3)OCO4)c2)c(C(C)C)c1Cl` [compound 086, Ethyl 1-[3-[1,3-benzodioxol-5-yl(methyl)carbamoyl]phenyl]-4-chloro-5-isopropyl-pyrazole-3-carboxylate], for which the EC50 is greater than 2000 nM.

On to `CCOC(=O)c1c(Cl)c(C(C)C)nn1-c1cccc(C(=O)N(C)c2ccc3c(c2)OCO3)c1` [compound 087, Ethyl 2-[3-[1,3-benzodioxol-5-yl(methyl)carbamoyl]phenyl]-4-chloro-5-isopropyl-pyrazole-3-carboxylate], for which the EC50 was less than 1000 nM.

With `Cc1nn(-c2cccc(C(=O)N(C)c3ccc4c(c3)OCO4)c2)c(C(=O)N(C)C)c1Cl` [compound 088, 2-[3-[1,3-benzodioxol-5-yl(methyl)carbamoyl]phenyl]-4-chloro-N,N,5-trimethyl-pyrazole-3-carboxamide], the EC50 is greater than 2000 nM.

Regarding `Cc1cc(C(F)(F)F)nn1-c1cccc(C(=O)N(C)c2ccc3c(c2)OCO3)c1` [compound 091, N-(1,3-Benzodioxol-5-yl)-N-methyl-3-[5-methyl-3-(trifluoromethyl)pyrazol-1-yl]benzamide], the EC50 fell in the range of 1000 to 2000 nM.

Take `CCc1nn(-c2cccc(C(=O)N(C)c3ccc4c(c3)OCO4)c2)c(CC)c1Cl` [compound 092, N-(1,3-Benzodioxol-5-yl)-3-(4-chloro-3,5-diethyl-pyrazol-1-yl)-N-methyl-benzamide]: the EC50 is less than 1000 nM.

For the compound `CCc1cc(CC)n(-c2cccc(C(=O)N(C)c3ccc4c(c3)OCO4)c2)n1` [compound 093, N-(1,3-Benzodioxol-5-yl)-3-(3,5-diethylpyrazol-1-yl)-N-methyl-benzamide], the EC50 lay within 1000 to 2000 nM.

On to `Cc1nn(-c2cccc(C(=O)N(C)c3ccc4c(c3)OCO4)c2)c(C2CC2)c1Cl` [compound 094, N-(1,3-Benzodioxol-5-yl)-3-(4-chloro-5-cyclopropyl-3-methyl-pyrazol-1-yl)-N-methyl-benzamide], for which the concentration for a half-maximal effect (EC50) is less than 1000 nM.

Consider `Cc1c(Cl)c(C(F)(F)F)nn1-c1cccc(C(=O)N(C)c2ccc3c(c2)OC(F)(F)O3)c1` [compound 095, 3-[4-Chloro-5-methyl-3-(trifluoromethyl)pyrazol-1-yl]-N-(2,2-difluoro-1,3-benzodioxol-5-yl)-N-methyl-benzamide], for which the EC50 is less than 1000 nM.

For the compound `Cc1c(Cl)c(C(F)(F)F)nn1-c1cccc(C(=O)N(C)c2ccc3c(c2)OCCO3)c1` [compound 096, 3-[4-Chloro-5-methyl-3-(trifluoromethyl)pyrazol-1-yl]-N-(2,3-dihydro-1,4-benzodioxin-6-yl)-N-methyl-benzamide], the EC50 is less than 1000 nM.

`Cc1cc(C2CC2)n(-c2cccc(C(=O)N(C)c3ccc4c(c3)OCO4)c2)n1` [compound 097, N-(1,3-Benzodioxol-5-yl)-3-(5-cyclopropyl-3-methyl-pyrazol-1-yl)-N-methyl-benzamide]: the EC50 is less than 1000 nM.

Take `CC(C)Cc1c(Cl)c(C(F)(F)F)nn1-c1cccc(C(=O)N(C)c2ccc3c(c2)OCO3)c1` [compound 101, N-(1,3-Benzodioxol-5-yl)-3-[4-chloro-5-isobutyl-3-(trifluoromethyl)pyrazol-1-yl]-N-methyl-benzamide]: the EC50 was less than 1000 nM.

`Cc1nn(-c2cccc(C(=O)N(C)c3ccc4c(c3)OCO4)c2)c(C(F)(F)F)c1Cl` [compound 102, N-(1,3-Benzodioxol-5-yl)-3-[4-chloro-3-methyl-5-(trifluoromethyl)pyrazol-1-yl]-N-methyl-benzamide]: the EC50 is less than 1000 nM.

For the compound `CCOC(=O)c1c(Cl)c(C)nn1-c1cccc(C(=O)N(C)c2ccc3c(c2)OCCO3)c1` [compound 103, Ethyl 4-chloro-2-[3-[2,3-dihydro-1,4-benzodioxin-6-yl (methyl)carbamoyl]phenyl]-5-methyl-pyrazole-3-carboxylate], the EC50 was less than 1000 nM.

Consider `Cc1c(C2CC2)c(C(F)(F)F)nn1-c1cccc(C(=O)N(C)c2ccc3c(c2)OCO3)c1` [compound 104, N-(1,3-Benzodioxol-5-yl)-3-[4-cyclopropyl-5-methyl-3-(trifluoromethyl)pyrazol-1-yl]-N-methyl-benzamide], for which the EC50 is less than 1000 nM.

As for `Cc1nn(-c2cccc(C(=O)N(C)c3ccc4c(c3)OCO4)c2)c(CO)c1Cl` [compound 105, N-(1,3-benzodioxol-5-yl)-3-[4-chloro-5-(hydroxylmethyl)-3-methyl-pyrazol-1-yl]-N-methyl-benzamide], the EC50 was in the range of 1000 to 2000 nM.

On to `Cc1c(Cl)c(C(F)(F)F)nn1-c1cccc(C(=O)N(C)c2cc3c(cc2Cl)OCO3)c1` [compound 106, N-(6-Chloro-1,3-benzodioxol-5-yl)-3-[4-chloro-5-methyl-3-(trifluoromethyl)pyrazol-1-yl]-N-methyl-benzamide], for which the EC50 is less than 1000 nM.

For `COCc1c(Cl)c(C)nn1-c1cccc(C(=O)N(C)c2ccc3c(c2)OCO3)c1` [compound 107, N-(1,3-benzodioxol-5-yl)-3-[4-chloro-5-(methoxymethyl)-3-methyl-pyrazol-1-yl]-N-methyl-benzamide], the EC50 is less than 1000 nM.

As for `CC(C)Cc1c(Cl)c(C(F)(F)F)nn1-c1cccc(C(=O)N(C)c2cc3c(cc2Cl)OCO3)c1` [compound 110, N-(6-Chloro-1,3-benzodioxol-5-yl)-3-[4-chloro-5-isobutyl-3-(trifluoromethyl)pyrazol-1-yl]-N-methyl-benzamide], the EC50 is less than 1000 nM.

For the compound `CN(C(=O)c1cccc(-n2nc(C(F)(F)F)c(Cl)c2C2CC2)c1)c1ccc2c(c1)OCO2` [compound 111, N-(1,3-Benzodioxol-5-yl)-3-[4-chloro-5-cyclopropyl-3-(trifluoromethyl)pyrazol-1-yl]-N-methyl-benzamide], the EC50 is less than 1000 nM.

Regarding `Cc1nn(-c2cccc(C(=O)N(C)c3ccc4c(c3)OCO4)c2)c(C=O)c1Cl` [compound 112, N-(1,3-benzodioxol-5-yl)-3-(4-chloro-5-formyl-3-methyl-pyrazol-1-yl)-N-methyl-benzamide], the EC50 is less than 1000 nM.

In the case of `Cc1nn(-c2cccc(C(=O)N(C)c3ccc4c(c3)OCO4)c2)c(C(C)(C)O)c1Cl` [compound 115, N-(1,3-Benzodioxol-5-yl)-3-[4-chloro-5-(1-hydroxy-1-methyl-ethyl)-3-methyl-pyrazol-1-yl]-N-methyl-benzamide], the EC50 was 1000 to 2000 nM.

With `CC(=O)c1c(Cl)c(C)nn1-c1cccc(C(=O)N(C)c2ccc3c(c2)OCO3)c1` [compound 116, 3-(5-Acetyl-4-chloro-3-methyl-pyrazol-1-yl)-N-(1,3-benzodioxol-5-yl)-N-methyl-benzamide], the EC50 is less than 1000 nM.

For the compound `Cc1nn(-c2cccc(C(=O)N(C)c3ccc4c(c3)OCO4)c2)c(COc2ccccc2)c1Cl` [compound 118, N-(1,3-Benzodioxol-5-yl)-3-[4-chloro-3-methyl-5-(phenoxymethyl)pyrazol-1-yl]-N-methyl-benzamide], the EC50 was less than 1000 nM.

In the case of `Cc1nn(-c2cccc(C(=O)N(C)c3ccc4c(c3)OCO4)c2)c(C(=O)c2ccccc2)c1Cl` [compound 119, N-(1,3-benzodioxol-5-yl)-3-(5-benzoyl-4-chloro-3-methyl-pyrazol-1-yl)-N-methyl-benzamide], the EC50 was less than 1000 nM.

Regarding `Cc1nc2ccc(NC(=O)c3cccc(-n4nc(C(F)(F)F)c(Cl)c4C)c3)cc2o1` [compound 120, 3-[4-Chloro-5-methyl-3-(trifluoromethyl)pyrazol-1-yl]-N-(2-methyl-1,3-benzoxazol-6-yl)benzamide], the EC50 lay within 1000 to 2000 nM.

For the compound `Cc1c(Cl)c(C(F)(F)F)nn1-c1cccc(C(=O)N(C)c2ccc3cn(C)nc3c2)c1` [compound 122, 3-[4-Chloro-5-methyl-3-(trifluoromethyl)pyrazol-1-yl]-N-methyl-N-(2-methylindazol-6-yl)benzamide], the EC50 was in the range of 1000 to 2000 nM.

Consider `Cc1nc2cc(Cl)c(N(C)C(=O)c3cccc(-n4nc(C(F)(F)F)c(Cl)c4C)c3)cc2o1` [compound 123, N-(5-Chloro-2-methyl-1,3-benzoxazol-6-yl)-3-[4-chloro-5-methyl-3-(trifluoromethyl)pyrazol-1-yl]-N-methyl-benzamide], for which the EC50 is less than 1000 nM.

Take `CN(C(=O)c1cccc(-n2nc(C(F)(F)F)c(Cl)c2-c2ccccc2)c1)c1ccc2c(c1)OCO2` [compound 124, N-(1,3-Benzodioxol-5-yl)-3-[4-chloro-5-phenyl-3-(trifluoromethyl)pyrazol-1-yl]-N-methyl-benzamide]: the EC50 was less than 1000 nM.

Regarding `Cc1c(F)c(C(F)(F)F)nn1-c1cccc(C(=O)N(C)c2ccc3c(c2)OCO3)c1` [compound 126, N-(1,3-Benzodioxol-5-yl)-3-[4-fluoro-5-methyl-3-(trifluoromethyl)pyrazol-1-yl]-N-methyl-benzamide], the EC50 was less than 1000 nM.

For `Cc1c(Cl)c(C(F)(F)F)nn1-c1cccc(C(=O)Nc2cc3c(cc2Cl)OCO3)c1` [compound 127, N-(6-Chloro-1,3-benzodioxol-5-yl)-3-[4-chloro-5-methyl-3-(trifluoromethyl)pyrazol-1-yl]benzamide], the EC50 was greater than 2000 nM.

For `Cc1c(Cl)c(C(F)(F)F)nn1-c1cccc(C(=O)Nc2ccc3c(c2)OCO3)c1` [compound 128, N-(1,3-Benzodioxol-5-yl)-3-[4-chloro-5-methyl-3-(trifluoromethyl)pyrazol-1-yl]benzamide], the EC50 is greater than 2000 nM.

With `Cc1nnc(-c2c(Cl)c(C)nn2-c2cccc(C(=O)N(C)c3ccc4c(c3)OCO4)c2)o1` [compound 129, N-(1,3-Benzodioxol-5-yl)-3-[4-chloro-3-methyl-5-(5-methyl-1,3,4-oxadiazol-2-yl)pyrazol-1-yl]-N-methyl-benzamide], the EC50 was less than 1000 nM.

These data come from US12492193B2, “Pyrazole derivatives for the treatment of cystic fibrosis” (Fondazione Istituto Italiano Di Tecnologia, priority 2017, dated 2025).
